Test results as given in PubChem BioAssay (NCI).
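Each compound was tested at five concentrations against cells in 96-well plates for 48 hours. The concentration for 50% growth inhibition is given as GI50. TGI marks complete inhibition of growth.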

Experiments:
Experiment in all cases: NCI anticancer screen, dose series, 48 h
[1] = system: SK-MEL-28 melanoma
[2] = system: UO-31 renal
[3] = system: SR leukemia
[4] = system: RXF 393 renal
[5] = system: EKVX NSCLC
[6] = system: HCC-2998 colon
[7] = system: A498 renal
[8] = system: COLO 205 colon
[9] = system: NCI-H226 lung
[10] = system: SNB-19 CNS
[11] = system: HOP-92 NSCLC
[12] = system: SF-539 CNS
[13] = system: NCI-H460 lung
[14] = system: RPMI-8226 leukemia
[15] = system: LOX IMVI melanoma
[16] = system: HT29 colon
[17] = system: MOLT-4 leukemia
[18] = system: SW-620 colon
[19] = system: PC-3 prostate
[20] = system: OVCAR-4 ovarian
[21] = system: SK-OV-3 ovarian
[22] = system: CAKI-1 renal
[23] = system: SK-MEL-5 melanoma
[24] = system: NCI-H522 lung
[25] = system: KM12 colon
[26] = system: SK-MEL-2 melanoma
[27] = system: OVCAR-8 ovarian

CCN(CC)c1ccc2c(c1)Oc1nc(N)c(C#N)c(N)c1C2Sc1ccc(C)cc1 (stereo not drawn)
TGI [1]: 3090 nM
GI50 [2]: 1350 nM
TGI [2]: 2630 nM
GI50 [3]: 261 nM
TGI [3]: 834 nM
GI50 [4]: 1770 nM
TGI [4]: 3220 nM
GI50 [5]: 605 nM
TGI [5]: 2050 nM
GI50 [6]: 1780 nM
TGI [6]: 3320 nM
GI50 [7]: 1890 nM
TGI [7]: 3300 nM
GI50 [8]: 1810 nM
TGI [8]: 3490 nM
GI50 [9]: 2010 nM
TGI [9]: 4620 nM
GI50 [10]: 1360 nM
TGI [10]: 2670 nM
GI50 [11]: 1310 nM
TGI [11]: 2600 nM
GI50 [12]: 1600 nM
TGI [12]: 2960 nM
GI50 [13]: 1390 nM
TGI [13]: 3020 nM
GI50 [14]: 1900 nM
TGI [14]: 5610 nM
GI50 [15]: 320 nM
TGI [15]: 1060 nM
GI50 [16]: 1840 nM
TGI [16]: 3410 nM
GI50 [17]: 824 nM
TGI [17]: 4300 nM
GI50 [18]: 1500 nM
TGI [18]: 3210 nM
GI50 [19]: 1260 nM
TGI [19]: 2600 nM
GI50 [20]: 1750 nM
TGI [20]: 3180 nM
GI50 [21]: 1940 nM
TGI [21]: 3470 nM
GI50 [22]: 1460 nM
TGI [22]: 2780 nM
GI50 [23]: 1760 nM
TGI [23]: 3150 nM
GI50 [24]: 1750 nM
TGI [24]: 3170 nM
GI50 [25]: 1050 nM
TGI [25]: 2280 nM
GI50 [26]: 1720 nM
TGI [26]: 3120 nM
GI50 [27]: 1510 nM
TGI [27]: 3080 nM
